Measurements: article PMC10367131 (ACS Synthetic Biology, 2023)

What was measured:
[1] = target: T1, VgGR/RXR (Homo sapiens, UniProt P04150+P19793, F602S); assay: VgGR/RXR luciferase reporter co-transfection assay in HEK293 cells; format: cell-based
T1 sequence (P04150 523-777 F602S limits assumed): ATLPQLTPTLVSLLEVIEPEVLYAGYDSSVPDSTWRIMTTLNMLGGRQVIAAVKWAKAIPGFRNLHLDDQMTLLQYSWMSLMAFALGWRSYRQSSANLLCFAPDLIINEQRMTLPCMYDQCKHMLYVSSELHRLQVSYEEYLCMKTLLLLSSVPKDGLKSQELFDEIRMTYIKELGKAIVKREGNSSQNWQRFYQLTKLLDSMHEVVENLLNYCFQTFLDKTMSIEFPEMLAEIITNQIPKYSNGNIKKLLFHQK
T1 sequence (P19793 1-462): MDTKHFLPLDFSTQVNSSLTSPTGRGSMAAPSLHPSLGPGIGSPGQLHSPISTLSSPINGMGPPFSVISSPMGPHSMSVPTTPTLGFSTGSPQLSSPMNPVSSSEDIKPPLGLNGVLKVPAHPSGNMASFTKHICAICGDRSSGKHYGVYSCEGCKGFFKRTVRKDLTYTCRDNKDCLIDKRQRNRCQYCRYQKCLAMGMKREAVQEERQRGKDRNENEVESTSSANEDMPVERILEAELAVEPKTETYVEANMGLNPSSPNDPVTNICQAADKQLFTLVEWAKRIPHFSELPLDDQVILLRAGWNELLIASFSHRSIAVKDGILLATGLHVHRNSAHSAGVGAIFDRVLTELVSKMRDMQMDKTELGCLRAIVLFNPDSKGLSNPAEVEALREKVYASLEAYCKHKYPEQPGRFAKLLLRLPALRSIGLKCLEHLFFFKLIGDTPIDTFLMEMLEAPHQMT

[2] = system: VgEcR/RXR; assay: Original VgEcR/RXR luciferase reporter co-transfection assay in HEK293 cells; format: cell-based, human; settings: ligand alone at 1 µM or 10 µM, HEK293, 20 h

SMILES: C[C@@H]1C[C@H]2[C@@H]3CCC4=CC(=O)C=C[C@]4(C)[C@@]3(F)[C@@H](O)C[C@]2(C)[C@@]1(O)C(=O)CO [DEX, dexamethasone]
- Maximal activation of reporter expression by ligand alone [1]: around one order of magnitude
- Response of original VgEcR/RXR reporter expression to ligand [2]: did not respond

SMILES: C[C@]12C=CC(=O)C=C1CC[C@@H]1[C@@H]2[C@@H](O)C[C@@]2(C)[C@H]1CC[C@]2(O)C(=O)CO [PRED, prednisolone]
- Response of original VgEcR/RXR reporter expression to ligand [2]: did not respond

SMILES: CC(C)CC[C@@H](O)[C@](C)(O)[C@H]1CC[C@@]2(O)C3=CC(=O)[C@@H]4C[C@@H](O)[C@@H](O)C[C@]4(C)[C@H]3CC[C@]12C [PonA, ponasterone A]
- Response of VgGR/RXR reporter expression to ligand ([1]; ligand alone, HEK293, 20 h): did not respond

SMILES: CC#C[C@]1(O)CC[C@H]2[C@@H]3CCC4=CC(=O)CCC4=C3[C@@H](c3ccc(N(C)C)cc3)C[C@@]21C [RU-486, mifepristone]
- Effect of increasing antagonist concentration on DEX-activated output [1]: reduction of output levels
- Effect on reporter expression in the absence of DEX [1]: increase in reporter expression
